For test [1], the target named is T1, ASIC1a (Rattus norvegicus, UniProt P55926).
T1 construct: expressed in transfected cells; host or cells: HEK cells according to b213
T1 sequence (P55926 1-526): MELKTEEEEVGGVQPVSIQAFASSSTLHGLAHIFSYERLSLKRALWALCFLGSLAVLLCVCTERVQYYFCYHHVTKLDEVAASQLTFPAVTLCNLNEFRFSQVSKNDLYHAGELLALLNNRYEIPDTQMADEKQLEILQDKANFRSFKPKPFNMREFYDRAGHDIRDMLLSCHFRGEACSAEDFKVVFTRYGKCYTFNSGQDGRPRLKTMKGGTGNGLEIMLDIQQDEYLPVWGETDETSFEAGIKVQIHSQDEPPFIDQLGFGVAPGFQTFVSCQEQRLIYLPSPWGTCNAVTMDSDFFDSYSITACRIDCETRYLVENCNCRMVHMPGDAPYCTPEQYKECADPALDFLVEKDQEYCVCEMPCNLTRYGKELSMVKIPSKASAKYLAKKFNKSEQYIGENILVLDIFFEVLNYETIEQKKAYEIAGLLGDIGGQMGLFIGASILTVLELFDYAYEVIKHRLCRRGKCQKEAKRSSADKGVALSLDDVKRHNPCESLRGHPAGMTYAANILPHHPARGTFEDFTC
Kind of test: whole cell patch clamp electrophysiology, ASIC1a. The class given is cell-based. As to conditions: 1 μM compound; pH 6.5 and pH 5.0; compared with the corresponding 5-vinyl esters. Here is the method:
(§1) Another example of an in vitro assessment method consists of using mammalian heterologous expression systems, which are known to the skilled in the art, and include a variety of mammalian cell lines such as COS, HEK, e.g., HEK293and/or CHO, cells. Cell lines are transfected with gated ion channel(s) and used to perform electrophysiology as follows:
(§2) All experiments are performed at room temperature (20-25° C.) in voltage clamp using conventional whole cell patch clamp methods (Neher, E., et al. (1978) Pfluegers Arch 375:219-228).
(§3) The amplifier used is the EPC-9 (HEKA-electronics, Lambrect, Germany) run by a Macintosh G3 computer via an ITC-16 interface. Experimental conditions are set with the Pulse-software accompanying the amplifier. Data is low pass filtered and sampled directly to hard-disk at a rate of 3 times the cut-off frequency.
(§4) Pipettes are pulled from borosilicate glass using a horizontal electrode puller (Zeitz-lnstrumente, Augsburg, Germany). The pipette resistances are 2-3 MOhms in the salt solutions used in these experiments. The pipette electrode is a chloridized silver wire, and the reference is a silver chloride pellet electrode (In Vivo Metric, Healdsburg, USA) fixed to the experimental chamber. The electrodes are zeroed with the open pipette in the bath just prior to sealing.
(§5) Coverslips with the cells are transferred to a 15 μl experimental chamber mounted on the stage of an inverted microscope (IMT-2, Olympus) supplied with Nomarski optics. Cells are continuously superfused with extracellular saline at a rate of 2.5 ml/min. After giga-seal formation, the whole cell configuration is attained by suction. The cells are held at a holding voltage of −60 mV and at the start of each experiment the current is continuously measured for 45 s to ensure a stable baseline. Solutions of low pH (<7) are delivered to the chamber through a custom-made gravity-driven flowpipe, the tip of which is placed approximately 50 μm from the cell. Application is triggered when the tubing connected to the flowpipe is compressed by a valve controlled by the Pulse-software. Initially, low pH (in general, pH 6.5) is applied for 1 s every 45 s. The sample interval during application is 550 μs. After stable responses are obtained, the extracellular saline as well as the low-pH solution are switched to solutions containing the compound to be tested. The compound is present until responses of a repeatable amplitude are achieved. Current amplitudes are measured at the peak of the responses, and effect of the compounds is calculated as the amplitude at compound equilibrium divided by the amplitude of the current evoked by the pulse just before the compound was included.
The following salt solutions are used: extracellular solution (mM): NaCl (140), KCl (4), CaCl2 (2), MgCl2 (4), HEPES (10, pH 7.4); intracellular solution (mM): KCl (120), KOH (31), MgCl2 (1.785), […] (10), HEPES (10, pH 7.2). In general, compounds for testing are dissolved in 50% DMSO at 500 fold the highest concentration used.
The cDNA for ASIC1a and ASIC3 can be cloned from rat poly(A)^+ mRNA and put into expression vectors according to Hesselager et al. (J Biol Chem. 279(12):11006-15 2004). All constructs are expressed in CHO-K1 cells (ATCC no. CCL61). CHO-K1 cells are cultured at 37° C. in a humidified atmosphere of 5% CO2 and 95% air and passaged twice every week. The cells are maintained in DMEM (10 mM HEPES, 2 mM glutamax) supplemented with 10% fetal bovine serum and 2 mM L-proline (Life Technologies). […]

The target in a further test is T2, ASIC3 (Rattus norvegicus, UniProt O35240).
T2 construct: expressed in transfected cells
T2 sequence (O35240 1-533): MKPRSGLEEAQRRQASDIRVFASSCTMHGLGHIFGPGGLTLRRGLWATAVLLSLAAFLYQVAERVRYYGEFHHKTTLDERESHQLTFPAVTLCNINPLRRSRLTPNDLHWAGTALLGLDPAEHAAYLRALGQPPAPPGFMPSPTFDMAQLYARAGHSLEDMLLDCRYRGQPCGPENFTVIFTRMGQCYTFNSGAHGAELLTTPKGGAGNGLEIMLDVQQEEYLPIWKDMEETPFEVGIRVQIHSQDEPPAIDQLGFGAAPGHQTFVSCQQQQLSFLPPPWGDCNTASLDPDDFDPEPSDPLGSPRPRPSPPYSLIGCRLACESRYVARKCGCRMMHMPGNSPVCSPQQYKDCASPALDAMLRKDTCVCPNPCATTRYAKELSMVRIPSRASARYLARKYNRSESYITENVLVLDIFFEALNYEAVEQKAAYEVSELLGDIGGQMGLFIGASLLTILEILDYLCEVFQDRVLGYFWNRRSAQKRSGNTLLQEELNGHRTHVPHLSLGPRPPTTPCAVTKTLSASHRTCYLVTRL
Kind of test: whole cell patch clamp electrophysiology, ASIC3. The class given is cell-based. The settings on record: 1 μM compound; pH 6.5 and pH 5.0; compared with the corresponding 5-vinyl esters. Here is the method: as §1, §2, §3, §4
as §5, with “included. […]” for “included.”

In the next test the test system is Male Sprague-Dawley rats. Kind of test: Formalin test (flinching behaviour). The class given is in vivo, rat. As to conditions: 10 mg/kg i.v. 10 min prior to formalin in the hind limb; compared with vehicle; n=8. Here is the method: Male Sprague-Dawley rats (body weight, 180-300 g) are housed together in groups of four animals under standard conditions with unrestricted access to food and water. Rats are housed in the room in which the testing procedure is performed to minimize any stress response to novel environmental cues. All experiments are conducted according to the ethical guidelines for investigations of experimental pain in conscious animals (Zimmerman, 1983).
Separate groups of rats are used for the different experiments such that each animal is used on one occasion only. All experiments for a given compound are performed using age matched animals in an attempt to avoid variability between experiments. Prior to initiation of the formalin test, 4 rats are habituated in separate testing cages for 15-20 min. […] On the basis of the response pattern, two distinct phases of nociceptive behavior are observed, characterized by flinching of the affected paw and scored (Blackburn-Munro et al., Eur J Pharmacol. 2002 Jun. 12;445(3):231-8). […]
All data is analysed using Sigmastat 2.03 statistical software (Jandel Scientific GmbH, Germany) and expressed as mean±S.E.M. Two Way Repeated Measures Analysis of Variance (Two Way RM ANOVA) is used to analyse formalin test data and where applicable, this is followed by post-hoc analysis using Bonferroni's t-test to allow comparisons between groups. […]

For test [2], the target named is T3, ASIC1a (Homo sapiens, UniProt P78348).
T3 construct: host or cells: HEK293
T3 sequence (P78348 1-528): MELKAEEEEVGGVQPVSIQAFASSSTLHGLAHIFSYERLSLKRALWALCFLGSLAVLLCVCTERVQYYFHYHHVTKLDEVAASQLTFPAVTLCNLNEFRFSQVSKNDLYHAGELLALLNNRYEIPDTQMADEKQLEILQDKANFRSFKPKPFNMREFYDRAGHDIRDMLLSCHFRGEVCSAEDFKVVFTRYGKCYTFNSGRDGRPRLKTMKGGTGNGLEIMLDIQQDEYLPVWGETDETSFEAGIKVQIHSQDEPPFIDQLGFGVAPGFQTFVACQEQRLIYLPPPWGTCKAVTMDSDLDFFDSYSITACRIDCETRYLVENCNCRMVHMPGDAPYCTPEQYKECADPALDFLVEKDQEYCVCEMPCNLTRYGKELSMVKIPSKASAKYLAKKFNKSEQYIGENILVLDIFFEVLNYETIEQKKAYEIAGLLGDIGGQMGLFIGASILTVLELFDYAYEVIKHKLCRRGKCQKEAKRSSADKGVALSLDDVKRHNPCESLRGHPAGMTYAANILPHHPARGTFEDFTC
In words: FLIPR calcium assay (MES-induced calcium response), ASIC1a expressing HEK293 cells. As to conditions: HEK293; at 1 μM, HEK cells, FLIPR. The class given is cell-based. Here is the method:
ASIC1a expressing HEK293 cells are grown in culture medium (DMEM with 10% FBS), in polystyrene culture flasks ([…]) at 37° C. in a humidified atmosphere of 5% CO2. Confluency of cells should be 80-90% on day of plating. Cells are rinsed with 10 ml of PBS and cells are re-suspended by addition of culture medium and trituration with a 25 ml pipette.
The cells are seeded at a density of approximately 1×10^6 cells/ml (100 μl/well) in black-walled, clear bottom, 96-well plates pre-treated with 10 mg/l poly-D-lysin (75 μl/well for ≧30 min). Plated cells were allowed to proliferate for 24 h before loading with dye.
Fluo-4/AM (1 mg, Molecular Probes) is added 912 μl DMSO. The Fluo-4/AM stock solution (1 mM) is diluted with culture medium to a final concentration of 2 μM.
The culture medium is aspirated from the wells, and 50 μl of the Fluo-4/AM loading solution is added to each well. The cells are incubated at 37° C. for 30 min.
After the loading period, the loading solution is aspirated and the cells are washed twice with 100 μl modified FLIPR medium (145 mM NaCl, 5 mM KCl, 5 mM CaCl2, 1 mM MgCl2, 10 mM HEPES, pH 7.4) to remove extracellular dye. Following the second wash, 100 μl modified FLIPR medium is added to each well and the fluorescence is measured in FLIPR.
Temperature: Room temperature (20-22° C.)
First addition: 50 μl test solution at a rate of 30 μl/sec and a starting height of […]
Second addition: 50 μl MES solution (20 mM, 5 mM final concentration) at a rate of 35 μl/sec and a starting height of 150 μl.
Reading intervals: pre-incubation—10 sec×7 and 3 sec×3 antagonist phase—3 sec×17 and 10 sec×12
Addition plates (compound test plate and MES plate) are placed on the right and left positions in the FLIPR tray, respectively. Cell plates are placed in the middle position and the ASIC1a program is effectuated. FLIPR will then take the appropriate measurements in accordance with the interval settings above. Fluorescence obtained after stimulation is corrected for the mean basal fluorescence (in modified FLIPR medium). […]

In the case of `CCCCC(=O)OC(c1ccnc2ccc(OC)cc12)C1CC2CCN1CC2CC` (stereo not drawn) [pentanoic acid (5-ethyl-1-aza-bicyclo[2.2.2]oct-2-yl)-(6-methoxy-quinolin-4-yl)-methyl ester], the “difference in current between control ASICs and ASICs with compound (ASIC1a)” value on ASIC1a [1] was “larger difference in current”. In addition, the “difference in current between control ASICs and ASICs with compound (ASIC3)” value on ASIC3 is listed as “larger difference in current”. In the case of `C=CC1CN2CCC1CC2[C@H](OC(=O)CCC1CCCC1)c1ccnc2ccccc12` (stereo partly drawn) [B], in the test on Male Sprague-Dawley rats, the “flinching behaviour in Formalin test” value was “attenuated flinching behaviour”. On to `CCC1CN2CCC1CC2C(OC(=O)CC(C)(C)C)c1ccnc2ccc(OC)cc12` (stereo not drawn) [3,3-dimethyl-butyric acid (5-ethyl-1-aza-bicyclo[2.2.2]oct-2-yl)-(6-methoxy-quinolin-4-yl)-methyl ester], for which the “difference in current between control ASICs and ASICs with compound (ASIC1a)” value on ASIC1a [1] is “larger difference in current”. At ASIC3, the “difference in current between control ASICs and ASICs with compound (ASIC3)” value is recorded as “larger difference in current”.

Regarding `C=CC1CN2CCC1CC2[C@H](OC(=O)CCC1CCCC1)c1ccnc2ccccc12` (stereo partly drawn) [drawing 27], on ASIC1a [2], the inhibition at 1 µM lay in the range of 30 to 45%.

The inhibition is how much of the control response was suppressed.

Values taken from patent US20070004680A1, “Compositions and methods for modulating gated ion channels” (PainCeptor Pharma Corporation, priority 2004, published 2007).
